Measured values published in paper PMC12320245 (International Journal of Biological Sciences, 2025).

Columns and labels:
[1] = tested on: cultured cortical astrocytes; assay: Intracellular cAMP levels in cultured astrocytes; type: cell-based; conditions: 1-hour treatment, 0.1 to 10 µM, particularly at 1 μM and 10 μM
astrocytes = assay: Lysosomal pH detection (DND-189 fluorescence); type: cell-based; conditions: 10 μM AMX with 100 nM BafA1
[2] = tested on: primary hippocampal neurons; assay: Scratch injury: cAMP ELISA; type: cell-based, rat; conditions: 10 μM AMX immediately after scratch, 6 hours post-injury
Procedure: Primary hippocampal neurons were obtained from embryonic day 18 (E18) Sprague-Dawley rat embryos. Pregnant rats were anesthetized using 2-3% isoflurane in a gas mixture of 70% nitrous oxide and 30% oxygen. Following euthanasia, the hippocampi were carefully dissected, minced, and enzymatically dissociated using TrypLE Express (Gibco, NY, USA) for 10 minutes at 37°C. The tissue was further mechanically dissociated using fire-polished glass pipettes, and the resulting cell suspension was filtered through a 70 μm cell strainer to remove debris. Neurons were seeded at a density of 3 × 10^5 cells per well in 24-well plates pre-coated with poly-L-lysine (Sigma-Aldrich, Saint Louis, MO, USA). Cells were maintained in neurobasal medium supplemented with B-27 (Thermo Fisher Scientific, Waltham, MA, USA), GlutaMAX (Gibco), and penicillin-streptomycin. The cultures were incubated at 37.5°C in a humidified atmosphere containing 5% CO₂. After seven days of growth, neurons were fixed with 4% paraformaldehyde (PFA) for 15 minutes at room temperature and subsequently stored at 4°C until their further use for immunostaining. A scratch injury model was used to mimic TBI in vitro. […] After the treatment period, neuronal damage and recovery were assessed using appropriate evaluation methods. […]

[3] = tested on: LAMP2 in primary hippocampal neurons; assay: Scratch injury: LAMP2 Western blot; type: cell-based, rat; conditions: scratch-AMX vs scratch-vehicle, 24 hours after scratch
Procedure: Primary hippocampal neurons were obtained from embryonic day 18 (E18) Sprague-Dawley rat embryos. Pregnant rats were anesthetized using 2-3% isoflurane in a gas mixture of 70% nitrous oxide and 30% oxygen. Following euthanasia, the hippocampi were carefully dissected, minced, and enzymatically dissociated using TrypLE Express (Gibco, NY, USA) for 10 minutes at 37°C. The tissue was further mechanically dissociated using fire-polished glass pipettes, and the resulting cell suspension was filtered through a 70 μm cell strainer to remove debris. Neurons were seeded at a density of 3 × 10^5 cells per well in 24-well plates pre-coated with poly-L-lysine (Sigma-Aldrich, Saint Louis, MO, USA). Cells were maintained in neurobasal medium supplemented with B-27 (Thermo Fisher Scientific, Waltham, MA, USA), GlutaMAX (Gibco), and penicillin-streptomycin. […]
A scratch injury model was used to mimic TBI in vitro. […] After the treatment period, neuronal damage and recovery were assessed using appropriate evaluation methods.
Twenty-four hours after the scratch injury, cells were lysed using RIPA buffer (IBS-BR002, iNtRON, Republic of Korea) supplemented with protease and phosphatase inhibitors (Sigma, USA). […] Protein detection was performed using a chemiluminescence bioimaging device (Amersham Imager 680, Cytiva, MA, USA), and the results were analyzed to determine protein expression levels.

hippocampus of TBI rats = assay: Controlled cortical impact TBI: hippocampal cAMP ELISA; type: in vivo; conditions: rat, 3 hours post-TBI, AMX 100 mg/kg i.p.
Procedure: This study used male Sprague-Dawley rats weighing 300-350 g and aged 8 weeks, obtained from DBL Co. (Chungcheongbuk-do, Republic of Korea). The rats were housed in a controlled environment with a temperature of 20 ± 2 °C, a relative humidity of 55 ± 5%, and a 12-hour light/dark cycle. They were provided ad libitum access to food and water. To minimize stress associated with transportation, animals underwent a one-week acclimatization period before the start of the experiments. All experimental procedures were conducted in compliance with the guidelines of the National Institutes of Health for the care and use of laboratory animals and were approved by the Hallym University Institutional Animal Care and Use Committee (protocol # Hallym 2022-23, approved on July 15, 2022). This manuscript follows the principles outlined in the Animal research: reporting in vivo experiments (ARRIVE) guidelines.
A controlled cortical impact (CCI) model was used to induce TBI in rats. Animals were anesthetized with 1-1.5% isoflurane in a 30:70 oxygen-to-nitrous oxide mixture and securely positioned in a stereotaxic frame. A 3 mm craniotomy was performed using a portable drill at a site 2.8 mm lateral to the midline and 3.0 mm posterior to Bregma. […]

CC(C)c1ccc2oc3nc(N)c(C(=O)O)cc3c(=O)c2c1 [AMX, amlexanox]
intracellular cAMP levels [1]: significantly increased intracellular cAMP levels | lysosomal pH (DND-189 fluorescence), reversal of BafA1 effect (astrocytes): effectively reversed BafA1-induced alkalization | cAMP levels after scratch injury (ELISA) [2]: restored cAMP and p-PKA levels | LAMP2 expression [3]: significantly preserved | hippocampal cAMP levels (ELISA) (hippocampus of TBI rats): restored cAMP levels to values comparable to sham controls
